Patent publication US10689377B2 (Mirati Therapeutics, Inc., priority 2017, dated 2020)

Key:
[1] = target: KRas G12C (Homo sapiens, UniProt P01116, G12C); assay: Cellular inhibition of KRas G12C measured by Phospho-ERK in NCI-H358 cells; type: cell-based; conditions: pERK(Thr202/Tyr204) normalized with GAPDH, NCI-H358 cells, 3 hours; read-out: IC50
Procedure, shortened: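 Readout is pERK(Thr202/Tyr204) immunofluorescence normalized to GAPDH, expressed as percent of DMSO control and fitted with a 4-parameter curve for IC50. Attached NCI-H358 cells received compound for 3 hours in 0.5% DMSO, followed by fixation and methanol permeabilization.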

[2] = target: KRas G12C (Homo sapiens, UniProt P01116, C118S/C51S/C80L/G12C); assay: KRas G12C Modification Assay (LCMS detection of covalent adduct); type: binding; conditions: normalized percent of control; 5 μM concentration for 3 hours
Procedure, shortened: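 Intact protein analysed by LC/MS with deconvolution; unmodified protein signal normalized to no-compound control and reported as percent of control (POC).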

Row | SMILES | IC50 [1] [nM] | POC [2]
1 | Cc1cccc2cccc(N3CCc4c(nc(OC[C@@H]5CCN(C)C5)nc4N4CCN(C(=O)/C=C/CF)[C@@H](CC#N)C4)C3)c12 [Example 581, 2-[(2S)-1-[(E)-4-fluorobut-2-enoyl]-4-[7-(8-methyl-1-naphthyl)-2-[[(3R)-1-methylpyrrolidin-3-yl]methoxy]-6,8-dihydro-5H-pyrido[3,4-d]pyrimidin-4-yl]piperazin-2-yl]acetonitrile] | 0.1 to 1000 | C (“C”>50% POC)
2 | CN1C[C@H](F)C[C@H]1COc1nc2c(c(N3CCN(C(=O)/C=C/CF)[C@@H](CC#N)C3)n1)CCN(c1cccc3cccc(Cl)c13)C2 [Example 582, 2-((S)-4-(7-(8-Chloronaphthalen-1-yl)-2-(((2S,4R)-4-fluoro-1-methylpyrrolidin-2-yl)methoxy)-5,6,7,8-tetrahydropyrido[3,4-d]pyrimidin-4-yl)-1-((E)-4-fluorobut-2-enoyl)piperazin-2-yl)acetonitrile] | 0.1 to 1000 | C (“C”>50% POC)
3 | CN1CCC[C@@H]1COc1nc2c(c(N3CCN(C(=O)/C=C/CF)[C@@H](CC#N)C3)n1)CCN(c1cccc3cccc(Cl)c13)C2 [Example 586, 2-[(2S)-4-[7-(8-chloro-1-naphthyl)-2-[[(2R)-1-methylpyrrolidin-2-yl]methoxy]-6,8-dihydro-5H-pyrido[3,4-d]pyrimidin-4-yl]-1-[(E)-4-fluorobut-2-enoyl]piperazin-2-yl]acetonitrile] | 0.1 to 1000 | C (“C”>50% POC)
4 | CC(=O)N(C)C/C=C/C(=O)N1CCN(c2nc(OC[C@@H]3CCCN3C)nc3c2CCN(c2cccc4cccc(C)c24)C3)C[C@@H]1CC#N [Example 587] | > 1000 | A (“A”≤25% POC)

Other lines, results leading:

Row | IC50 [1] [nM] | POC [2] | SMILES
5 | 0.1 to 1000 | C (“C”>50% POC) | C=C(F)C(=O)N1CCN(c2nc(OC[C@@H]3C[C@@H](OC)CN3C)nc3c2CCN(c2cccc4cccc(Cl)c24)C3)C[C@@H]1CC#N [Example 577, 2-[(2S)-4-[7-(8-Chloro-1-naphthyl)-2-[[(2S,4R)-4-methoxy-1-methyl-pyrrolidin-2-yl]methoxy]-6,8-dihydro-5H-pyrido[3,4-d]pyrimidin-4-yl]-1-(2-fluoroprop-2-enoyl)piperazin-2-yl] acetonitrile]
6 | 0.1 to 1000 | C (“C”>50% POC) | Cc1cccc2cccc(N3CCc4c(nc(OC[C@@H]5C[C@@H](F)CN5C)nc4N4CCN(C(=O)/C=C/CF)[C@@H](CC#N)C4)C3)c12 [Example 578, 2-[(2S)-1-[(E)-4-Fluorobut-2-enoyl]-4-[2-[[(2S,4R)-4-fluoro-1-methyl-pyrrolidin-2-yl]methoxy]-7-(8-methyl-1-naphthyl)-6,8-dihydro-5H-pyrido[3,4-d]pyrimidin-4-yl]piperazin-2-yl] acetonitrile]
7 | 0.1 to 1000 | C (“C”>50% POC) | CO[C@@H]1C[C@@H](COc2nc3c(c(N4CCN(C(=O)/C=C/CF)[C@@H](CC#N)C4)n2)CCN(c2cccc4cccc(Cl)c24)C3)N(C)C1 [Example 583, 2-[(2S)-4-[7-(8-chloro-1-naphthyl)-2-[[(2S,4R)-4-methoxy-1-methyl-pyrrolidin-2-yl]methoxy]-6,8-dihydro-5H-pyrido[3,4-d]pyrimidin-4-yl]-1-[(E)-4-fluorobut-2-enoyl]piperazin-2-yl]acetonitrile]
8 | 0.1 to 1000 | C (“C”>50% POC) | N#CC[C@H]1CN(c2nc(OCCCN3C[C@@H]4C[C@H]3CO4)nc3c2CCN(c2cccc4cccc(Cl)c24)C3)CCN1C(=O)/C=C/CF [Example 585, 2-((S)-4-(2-(3-((1S,4S)-2-oxa-5-azabicyclo[2.2.1]heptan-5-yl)propoxy)-7-(8-chloronaphthalen-1-yl)-5,6,7,8-tetrahydropyrido[3,4-d]pyrimidin-4-yl)-1-((E)-4-fluorobut-2-enoyl)piperazin-2-yl)acetonitrile]
